The series relates to rat chronic carcinogenicity bioassay, TD50. Nature of the series: DSSTox (CPDBAS) Carcinogenic Potency Database Summary Rat Bioassay Results. To be noted: for Potency: stronger effect = lower value; for outcome: TD50_Rat_Note: no positive results. An outline of the steps:
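The activity score maps log10(1/TD50_Rat_mmol) linearly onto 1–100; actives without a computed TD50, such as mixtures, receive 50. Source data are chronic rat carcinogenicity tests, using the most positive experiment for each sex.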

Where [1] appears, read: TargetSites_Rat_Female: no positive results.
Setting [2] is: TD50_Rat_Note: positive test results only by intraperitoneal or intravenous injection.
Where [3] appears, read: TD50_Rat_Note: TD50 is harmonic mean of more than one positive test, TargetSites_Rat_Female: stomach.
[4] abbreviates: TargetSites_Rat_Female: mammary gland.

The source made the active and inactive calls.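 The calls were made as follows: active = at least one rat sex group has a carcinogenic potency value and tumor site recorded; inconclusive = only rat studies were judged inadequate by the national testing program; inactive = no potency or tumor site, with negative rat experiments.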 *1 amine or outer side, *2 acyl side, *3 side chain or, on linkers, in order; H or OH if unused. Where a SMILES comes first, the peptide text is derived from it. Bridges are numbered along the chain shown (N, C = ends). Roman numbers before positions name the chains, in order. [ ]: non-standard residue; d: D form. Actinocin(1to9) = Cc1c2oc3c(C)ccc(C(=O)[*:2])c3nc-2c(C(=O)[*:1])c(N)c1=O; d(aIle) = CC[C@H](C)[C@@H](N)C(=O)O; NMeV = CN[C@H](C(=O)O)C(C)C; Sar = CNCC(=O)O

`c1ccc2occc2c1`: the Potency (TargetSites_Rat_Female: kidney) is 424 mg/kg/day.

Consider `Cc1ccc(N=C=O)cc1N=C=O`, for which the Potency (TD50_Rat_Note: TD50 is harmonic mean of more than one positive test, TargetSites_Rat_Female: liver, mammary gland, pancreas, subcutaneous tissue) is 33.7 mg/kg/day.

Regarding `O=NN1CCC[C@H]1C(=O)O`, the outcome under setting [1] was “inactive; no positive results”.

For the molecule `CNC(=O)Oc1cc(C)c(N(C)C)c(C)c1`, the outcome under setting [1] is “inactive; no positive results”.

`Cc1noc(NS(=O)(=O)c2ccc(N)cc2)c1C`: under setting [1], the outcome was “inactive; no positive results”.

As to `S=C([S-])NCCNC(=S)[S-].[Mn+2]`, for the setting “TargetSites_Rat_BothSexes: all tumor bearing animals”, the Potency was 157 mg/kg/day.

With `N#CS`, the outcome under setting [1] was “inactive; no positive results”.

With `C[N+](C)(C)CCO`, the outcome is “inactive; no positive results”.

With `CNNCc1ccc(C(=O)NC(C)C)cc1`, the Potency (TD50_Rat_Note: positive test results only by intraperitoneal or intravenous injection, TD50 is harmonic mean of more than one positive, TargetSites_Rat_Female: hematopoietic system, mammary gland, nervous system) is 0.351 mg/kg/day and the Potency under setting [2] was 4.01 mg/kg/day.

`CCC(=O)C(CC(C)N(C)C)(c1ccccc1)c1ccccc1` (stereo unspecified): the outcome under setting [1] was “inactive; no positive results”.

As for `Cc1ccc(N=Nc2c(O)c(S(=O)(=O)O)cc3ccc(S(=O)(=O)O)cc23)c(C)c1`, the Potency (TD50_Rat_Note: TD50 value less than the reported upper confidence limit, TD50 is harmonic mean of more than one positive test, harmonic, TargetSites_Rat_Female: liver) was 415 mg/kg/day.

Take `[O]=[Cr](=[O])([OH])[O][Cr](=[O])(=[O])[OH]`: the Potency is 4.64 mg/kg/day.

With `Clc1cccc(-c2ccc(Cl)c(Cl)c2Cl)c1Cl`, where the note is “TD50_Rat_Note: TD50 is harmonic mean of more than one positive test, TD50_Rat_mmol was not calculated for this mixture, but Activiity S, TargetSites_Rat_Female: liver”, the Potency is 4.8 mg/kg/day.

Regarding `C/C=C/C=C/C=O`, the Potency under setting [3] was 62.2 mg/kg/day.

With `Nc1cc(S(=O)(=O)[O-])cc2cc(S(=O)(=O)[O-])c(N=Nc3ccc(-c4ccc(N=Nc5c(S(=O)(=O)[O-])cc6cc(S(=O)(=O)[O-])cc(N)c6c5O)c(O)c4)cc3O)c(O)c12.[Cu].[Cu].[Na+].[Na+].[Na+].[Na+]`, the Potency under setting [1] was 1570 mg/kg/day.

For the molecule `CN(N=O)C(=O)c1ccccc1`, where the note is “TD50_Rat_Note: TD50 is harmonic mean of more than one positive test, TargetSites_Rat_Female: all tumor bearing animals”, the Potency was 3.23 mg/kg/day.

As to `C=CC(OCC)OCC`, under setting [1], the outcome is “inactive; no positive results”.

Take `COc1cc2c(c3c1c(=O)c1ccccc1n3C)C=CC(C)(C)O2`: the Potency (TD50_Rat_Note: positive test results only by intraperitoneal or intravenous injection, TD50 is harmonic mean of more than one positive, TargetSites_Rat_Female: mammary gland, peritoneal cavity) is 0.505 mg/kg/day.

With `ClCC1CO1` (stereo unspecified), the Potency under setting [3] is 2.96 mg/kg/day.

As for `CC(O)CN(CCO)N=O` (stereo unspecified), the Potency (TargetSites_Rat_Female: esophagus, liver, vascular system) was 1.02 mg/kg/day.

Take `O=NN1CCCCC1c1cccnc1` (stereo unspecified): for the setting “TD50_Rat_Note: TD50 is harmonic mean of more than one positive test, TargetSites_Rat_Female: esophagus”, the Potency was 11.9 mg/kg/day.

Consider `O=c1ccc2ccccc2o1`, for which the Potency (TD50_Rat_Note: TD50 is harmonic mean of more than one positive test, greater than ten-fold variation among TD50 values for positive res, TargetSites_Rat_Female: liver) was 39.2 mg/kg/day.

As for `COc1ccc(CN(CCN(C)C)c2ccccn2)cc1`, the Potency (TD50_Rat_Note: TD50 is harmonic mean of more than one positive test, TargetSites_Rat_Female: liver) was 280 mg/kg/day.

On to `COc1cc2c(cc1N)oc1ccccc12`, for which the Potency (TD50_Rat_Note: TD50 is harmonic mean of more than one positive test, harmonic mean of TD50 includes a value for upper 99% confidence li, TargetSites_Rat_Female: ear Zymbals gland, mammary gland, urinary bladder) is 29 mg/kg/day.

Consider `CC(COc1ccc(C(C)(C)C)cc1)OS(=O)OCCCl` (stereo unspecified), for which the Potency (TD50_Rat_Note: TD50 is harmonic mean of more than one positive test, TargetSites_Rat_BothSexes: liver) is 96.7 mg/kg/day.

Turning to `c1ccc2c(c1)cc1ccc3cccc4ccc2c1c34`, the Potency (TargetSites_Rat_BothSexes: stomach) was 0.956 mg/kg/day.

In the case of `CC(C)(C)NC[C@H](O)COc1cccc2c1CCCC2=O`, under setting [1], the outcome was “inactive; no positive results”.

As to `O.O=S(=O)([O-])[O-].[Mn+2]`, the outcome under setting [1] is “inactive; no positive results”.

For `CC1SC(C)N(N=O)C(C)S1` (stereo unspecified), the Potency (TargetSites_Rat_Female: esophagus, liver, oral cavity) was 0.483 mg/kg/day.

Turning to `O=[N+]([O-])c1ccc(-c2cscn2)o1`, the Potency (TargetSites_Rat_Female: mammary gland, stomach) is 7.68 mg/kg/day.

For `CCC(Cl)CCC(Cl)C(Cl)CC(Cl)C(Cl)C(Cl)CCl` (stereo unspecified), the Potency (TD50_Rat_Note: TD50 is harmonic mean of more than one positive test, TD50_Rat_mmol was not calculated for this mixture, but Activiity S, TargetSites_Rat_Female: liver, thyroid gland) was 222 mg/kg/day.

For the molecule `S=C=NCc1ccccc1`, the outcome was “inactive; no positive results”.

For the molecule `O=C(Nc1nc(-c2ccc([N+](=O)[O-])o2)cs1)C(F)(F)F`, the Potency under setting [4] was 6.79 mg/kg/day.

For `CC[C@H](C)[C@H]1NC(=O)[C@@H](NC(=O)c2c3nc4c(C(=O)N[C@@H]5C(=O)N[C@H](C(C)C)C(=O)N6CCC[C@H]6C(=O)N(C)CC(=O)N(C)[C@@H](C(C)C)C(=O)O[C@@H]5C)ccc(C)c4oc-3c(C)c(=O)c2N)[C@@H](C)OC(=O)[C@H](C(C)C)N(C)C(=O)CN(C)C(=O)[C@@H]2CCCN2C1=O` (I: T[d(aIle)]P[Sar][NMeV] / II: T[dV]P[Sar][NMeV]; ester I:1-I:C, II:1-II:C; linker I:N-II:N via Actinocin(1to9)), the outcome is “inactive; no positive results”.

With `CCOC1=C(O)C(=O)O[C@@H]1[C@@H](O)CO`, the result under setting [1] was inactive.

For the molecule `COC(=O)c1ccc(C(=O)OC)cc1`, the outcome under setting [1] is “inactive; no positive results”.

Turning to `C/C=C1/C[C@@H](C)[C@@](C)(O)C(=O)OC/C2=C/CN(C)CC[C@@H](OC1=O)C2=O`, under setting [2], the Potency is 1.7 mg/kg/day.

As to `C[C@]12C=CC(=O)C=C1CC[C@@H]1[C@@H]2[C@@H](O)C[C@@]2(C)[C@H]1CC[C@]2(O)C(=O)COC(=O)CCCc1ccc(N(CCCl)CCCl)cc1`, the Potency (TargetSites_Rat_Female: ear Zymbals gland) is 19.2 mg/kg/day.

Regarding `CC(C)NCC(O)COc1ccc(CC(N)=O)cc1` (stereo unspecified), the outcome under setting [1] was “inactive; no positive results”.

On to `CC/C=C(/CC)[N+](=O)[O-]`, for which the Potency (TargetSites_Rat_BothSexes: lung) is 8.66 mg/kg/day.

With `C#CC(OC(N)=O)(c1ccccc1)c1ccc(Cl)cc1` (stereo unspecified), the Potency is 8.78 mg/kg/day.

Regarding `CN(C)C(=S)[S][Pb][S]C(=S)N(C)C`, the outcome under setting [1] was “inactive; no positive results”.

`CC1=C(/C=C/C(C)=C/C=C/C(C)=C/C=C/C=C(C)/C=C/C=C(C)/C=C/C2=C(C)CCCC2(C)C)C(C)(C)CCC1`: the outcome is “inactive; no positive results”.

Consider `CC[C@]1(O)CC2CN(CCc3c([nH]c4ccccc34)[C@@](C(=O)OC)(c3cc4c(cc3OC)N(C)[C@H]3[C@@](O)(C(=O)OC)[C@H](OC(C)=O)[C@]5(CC)C=CCN6CC[C@]43[C@@H]65)C2)C1` (stereo partly specified), for which the outcome is “inactive; no positive results”.

As to `CCOC(=O)[C@H](CCc1ccccc1)N[C@@H](C)C(=O)N1Cc2ccccc2C[C@H]1C(=O)O`, the outcome under setting [1] is “inactive; no positive results”.

As to `ClC/C=C/CCl`, the Potency (TD50_Rat_Note: TD50 is harmonic mean of more than one positive test, TargetSites_Rat_Female: nasal cavity) is 0.297 mg/kg/day.

As for `Cn1c(N)nc2c3cccnc3ccc21`, the Potency reads like this: (TD50_Rat_Note: TD50 is harmonic mean of more than one positive test, greater than ten-fold variation among TD50 values for positive res, TargetSites_Rat_Female: clitoral gland, ear Zymbals gland, large intestine, liver, mammary gland, oral cavity, preputial gland, skin, small inte) 0.812 mg/kg/day; (TargetSites_Rat_Female: ear Zymbals gland, liver, mammary gland, pancreas, urinary bladder, vascular system) 3.29 mg/kg/day.

Regarding `S=C=NCCCc1ccccc1`, the outcome is “inactive; no positive results”.

For `O=S(=O)(O)CCS`, the outcome is “inactive; no positive results”.

Consider `O=c1c(O)c(-c2ccc(O)c(O)c2)oc2cc(O)cc(O)c12`, for which the Potency (TD50_Rat_Note: TD50 is harmonic mean of more than one positive test, greater than ten-fold variation among TD50 values for positive res, TargetSites_Rat_Female: small intestine, urinary bladder) is 10.1 mg/kg/day. In addition, under setting [1], the outcome was “inactive; no positive results”.

As for `CN(C)C(=O)COC(=O)Cc1ccc(OC(=O)c2ccc(N=C(N)N)cc2)cc1`, the outcome is “inactive; no positive results”.

Turning to `COc1c(Cl)c(Cl)c(Cl)c(Cl)c1Cl`, the Potency under setting [1] was 24.8 mg/kg/day.

For `CC(C)CON=O`, for the setting “TD50_Rat_Note: TD50 is harmonic mean of more than one positive test, TargetSites_Rat_Female: lung”, the Potency is 54.1 mg/kg/day.

Take `CCOCCc1c(-c2ccccc2)nc(N)n2ncnc12`: the Potency (TD50_Rat_Note: TD50 is harmonic mean of more than one positive test, TargetSites_Rat_Female: liver, mammary gland) was 548 mg/kg/day.

For the molecule `C1N2CN3CN1CN(C2)C3`, the outcome under setting [1] is “inactive; no positive results”.

With `c1cc(OCC2CO2)cc(OCC2CO2)c1` (stereo unspecified), under setting [3], the Potency is 3.78 mg/kg/day.

As to `COc1ccc(C)cc1N`, for the setting “TD50_Rat_Note: TD50 is harmonic mean of more than one positive test, TargetSites_Rat_Female: nasal cavity, urinary bladder”, the Potency was 98 mg/kg/day.

Regarding `CC(=O)OC1CC(C)OC(C)O1` (stereo unspecified), the Potency is 716 mg/kg/day. Also, under setting [1], the outcome is “inactive; no positive results”.

Consider `CCCC(Cl)CCC(Cl)CCC(Cl)CCC(Cl)CCC(Cl)CCC(Cl)CCC(C)Cl` (stereo unspecified), for which, under setting [1], the outcome was “inactive; no positive results”.

Regarding `CCc1cccc2c3c([nH]c12)C(CC)(CC(=O)O)OCC3` (stereo unspecified), the outcome under setting [1] was “inactive; no positive results”.

On to `Nc1ccc(-c2ccccc2)cc1`, for which the Potency under setting [4] is 0.98 mg/kg/day.

On to `COc1ccc(N)c(OC)c1`, for which the outcome under setting [1] was “inactive; no positive results”.

In the case of `O=C1C=C2C(=CCOC2O)O1` (stereo unspecified), the outcome under setting [1] was inactive.

As for `Cn1cnc([N+](=O)[O-])c1Sc1ncnc2nc[nH]c12`, under setting [1], the outcome was inactive.

`Cc1cc(Cl)ccc1N`: the outcome under setting [1] is “inactive; no positive results”.

Consider `CC(=O)Nc1ccc(O)cc1`, for which, for the setting “TD50_Rat_Note: TD50 is harmonic mean of more than one positive test, TargetSites_Rat_Female: liver, urinary bladder”, the Potency was 495 mg/kg/day.

`CN(C)CCOC(c1ccccc1)c1ccccc1`: the outcome under setting [1] was “inactive; no positive results”.

The values are drawn from PubChem BioAssay AID1208 (EPA DSSTox, 2008).
